# Experimental data from patent publication US9914737B2, “Triazolopyrimidinone or triazolopyridinone derivatives, and use thereof” (ST PHARM CO., LTD., priority 2014, dated 2018).
# Molecular target: T1, tankyrase 1 (Homo sapiens, UniProt O95271)
# T1 construct: purchased Trevigen 4700-096-K
# T1 sequence (O95271 1-1327): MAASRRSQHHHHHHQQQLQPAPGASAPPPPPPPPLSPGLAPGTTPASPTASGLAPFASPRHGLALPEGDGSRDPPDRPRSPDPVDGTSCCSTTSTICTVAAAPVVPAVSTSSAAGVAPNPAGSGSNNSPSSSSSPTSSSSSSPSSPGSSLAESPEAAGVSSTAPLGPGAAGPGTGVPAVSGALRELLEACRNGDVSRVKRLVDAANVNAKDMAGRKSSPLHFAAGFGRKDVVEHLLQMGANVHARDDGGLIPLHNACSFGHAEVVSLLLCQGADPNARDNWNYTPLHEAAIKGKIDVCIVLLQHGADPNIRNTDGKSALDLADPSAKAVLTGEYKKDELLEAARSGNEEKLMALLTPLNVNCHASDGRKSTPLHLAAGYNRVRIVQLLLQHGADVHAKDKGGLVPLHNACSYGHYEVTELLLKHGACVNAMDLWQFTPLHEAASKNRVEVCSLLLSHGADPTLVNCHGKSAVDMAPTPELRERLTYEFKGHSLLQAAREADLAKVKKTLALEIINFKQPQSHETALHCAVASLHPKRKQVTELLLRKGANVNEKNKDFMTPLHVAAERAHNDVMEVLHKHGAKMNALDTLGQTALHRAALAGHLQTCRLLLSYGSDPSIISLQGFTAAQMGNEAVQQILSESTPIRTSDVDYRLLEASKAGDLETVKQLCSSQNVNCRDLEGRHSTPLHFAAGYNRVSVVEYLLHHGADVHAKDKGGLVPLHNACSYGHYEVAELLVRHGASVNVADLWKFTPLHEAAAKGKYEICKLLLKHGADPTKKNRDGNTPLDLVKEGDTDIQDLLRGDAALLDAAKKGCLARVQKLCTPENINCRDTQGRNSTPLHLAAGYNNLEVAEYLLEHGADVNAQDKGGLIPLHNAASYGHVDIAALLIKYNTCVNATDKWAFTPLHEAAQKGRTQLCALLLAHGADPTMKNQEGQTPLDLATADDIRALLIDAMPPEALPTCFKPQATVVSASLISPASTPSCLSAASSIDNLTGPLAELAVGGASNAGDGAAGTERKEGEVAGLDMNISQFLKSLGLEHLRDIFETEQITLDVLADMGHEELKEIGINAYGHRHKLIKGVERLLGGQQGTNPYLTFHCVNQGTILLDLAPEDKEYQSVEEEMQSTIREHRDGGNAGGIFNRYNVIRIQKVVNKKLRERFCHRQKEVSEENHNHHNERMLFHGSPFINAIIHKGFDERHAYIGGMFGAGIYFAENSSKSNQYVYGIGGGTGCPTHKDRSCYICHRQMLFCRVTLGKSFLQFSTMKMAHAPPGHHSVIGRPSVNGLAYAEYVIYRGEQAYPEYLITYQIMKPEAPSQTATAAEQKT
# Assay: Analysis of activity of tankyrase 1 (Trevigen kit, ELISA absorbance at 450 nm)
# Assay type: biochemical
# Details: not given
# Experimental: Activities of novel compounds synthesized according to Examples 1 to 72 against tankyrase 1 were analyzed using a Trevigen kit (Cat. No. 4700-096-K). Poly PAR histone protein-coated 96-well plate, anti-PAR monoclonal antibody and goat anti-mouse IgG-HRP were used for measurement of absorbance by ELISA method. Specifically, 20× I-PAR assay buffer was diluted to 1× by adding water, and 50 μL of the diluted buffer was added to each well of the 96-well plate followed by reacting at rt for 30 min. Then, the supernatant was completely removed from each well and 10 μL of 1× I-PAR assay buffer and 15 μL of assay substrate were added to each well along with 1 μL of a 50× solution of inhibitors to be tested, which were the compounds obtained in the Examples 1 to 72. 10 mUnits/μL of tankyrase 1 enzyme was diluted 50-fold with 1× I-PAR assay buffer and 25 μL of the diluted enzyme was added to each well and reacted while stirring at rt for 30 min. One without any compound of the present invention was used as a positive control and another containing 1× I-PAR assay buffer with the same volume instead of tankyrase 1 enzyme was used as a negative control. Upon completion of the reaction, 200 μL of PBSX, which was prepared by adding 0.1% triton X-100 to PBS, was added and removed and this washing process was repeated twice. Washing was repeated twice more using PBS in the same manner. 5× antibody diluent was diluted with distilled water to 1× concentration, 50 μL of the diluted goat anti-mouse IgG-HRP to 1/2000 was added to each well and reacted while stirring at rt for 30 min. Washes were carried out twice using PBSX and PBS, respectively. After adding 50 μL of TACS-sapphire to each well of the plate, the plate was blocked from light to react for 10 min to 15 min and the color of the reaction solution turned blue. To stop the reaction, 50 μL of 0.2N HCl was added to turn the solution yellow. Finally, the absorbance of the resulting solution was measured at 450 nm.
row,SMILES,IC50 [nM]
1,"Cn1nnc2c(=O)[nH]c(N3CCN(c4c(F)cc(OC5COC5)cc4F)CC3)cc21 [compound 62, 6-(4-(2,6-Difluoro-4-(oxetan-3-yloxy)phenyl)piperazin-1-yl)-1-methyl-1H-[1,2,3]triazolo[4,5-c]pyridin-4(5H)-one]",22.1
2,"Cn1nnc2c(=O)[nH]c(N3CCN(c4ccccc4F)CC3)nc21 [compound 1, 5-(4-(2-Fluorophenyl)piperazin-1-yl)-3-methyl-3H-[1,2,3]triazolo[4,5-d]pyrimidin-7(6H)-one]",66.7
3,"Cn1nnc2c(=O)[nH]c(N3CCN(c4c(F)cc(F)cc4F)CC3)nc21 [compound 22, 3-Methyl-5-(4-(2,4,6-trifluorophenyl)piperazin-1-yl)-3H-[1,2,3]triazolo[4,5-d]pyrimidin-7(6H)-one]",49.7

# Same assay, conditions: tankyrase 1 enzyme, Trevigen kit Cat. No. 4700-096-K, 30 min at rt; read-out: TNKS1 (IC50)
row,IC50 [nM],SMILES
1,331,"Cn1nnc(C2CCN(c3cc4c(nnn4C)c(=O)[nH]3)CC2)n1 [compound 66, 1-Methyl-6-(4-(2-methyl-2H-tetrazol-5-yl)piperidin-1-yl)-1H-[1,2,3]triazolo[4,5-c]pyridin-4(5H)-one]"
2,80,"Cn1nnc2c(=O)[nH]c(N3CCN(c4c(F)cc(OCCCCCC(=O)O)cc4F)CC3)nc21 [compound 19, 6-(3,5-Difluoro-4-(4-(3-methyl-7-oxo-6,7-dihydro-3H-[1,2,3]triazolo[4,5-d]pyrimidin-5-yl)piperazin-1-yl)phenoxy)hexanoic acid]"
3,51.4,"Cn1nnc2c(=O)[nH]c(N3CCN(c4c(F)cc(OCCN5CCC(O)CC5)cc4F)CC3)nc21 [compound 42, 5-(4-(2,6-Difluoro-4-(2-(4-hydroxypiperidin-1-yl)ethoxy)phenyl)piperazin-1-yl)-3-methyl-3H-[1,2,3]triazolo[4,5-d]pyrimidin-7(6H)-one]"
4,48.7,"Cn1nnc2c(=O)[nH]c(N3CCN(c4c(F)cc(OCC(=O)N5CCCCC5)cc4F)CC3)nc21 [compound 35, 5-(4-(2,6-Difluoro-4-(2-oxo-2-(piperidin-1-yl)ethoxy)phenyl)piperazin-1-yl)-3-methyl-3H-[1,2,3]triazolo[4,5-d]pyrimidin-7(6H)-one]"
5,30,"COC(C)c1cc(F)c(N2CCN(c3nc4c(nnn4C)c(=O)[nH]3)CC2)c(F)c1 (stereo not shown) [compound 18, 5-(4-(2,6-Difluoro-4-(1-methoxyethyl)phenyl)piperazin-1-yl)-3-methyl-3H-[1,2,3]triazolo[4,5-d]pyrimidin-7(6H)-one]"
6,41.5,"CN1CCN(Cc2cc(F)c(N3CCN(c4nc5c(nnn5C)c(=O)[nH]4)CC3)c(F)c2)CC1 [compound 14, 5-(4-(2,6-Difluoro-4-((4-methylpiperazin-1-yl)methyl)phenyl)piperazin-1-yl)-3-methyl-3H-[1,2,3]triazolo[4,5-d]pyrimidin-7(6H)-one]"
7,40.2,"COCCN(C)Cc1cc(F)c(N2CCN(c3cc4c(nnn4C)c(=O)[nH]3)CC2)c(F)c1 [compound 65, 6-(4-(2,6-Difluoro-4-(((2-methoxyethyl)(methyl)amino)methyl)phenyl)piperazin-1-yl)-1-methyl-1H-[1,2,3]triazolo[4,5-c]pyridin-4(5H)-one]"
8,17.6,"CC(O)c1cc(F)c(N2CCN(c3nc4c(nnn4C)c(=O)[nH]3)CC2)c(F)c1 (stereo not shown) [compound 17, 5-(4-(2,6-Difluoro-4-(1-hydroxyethyl)phenyl)piperazin-1-yl)-3-methyl-3H-[1,2,3]triazolo[4,5-d]pyrimidin-7(6H)-one]"

# Continued, compound first:
row,SMILES,IC50 [nM]
1,"CN(C)CCOc1cc(F)c(N2CCN(c3nc4c(nnn4C)c(=O)[nH]3)CC2)c(F)c1 [compound 6, 5-(4-(4-(2-(Dimethylamino)ethoxy)-2,6-difluorophenyl)piperazin-1-yl)-3-methyl-3H-[1,2,3]triazolo[4,5-d]pyrimidin-7(6H)-one]",16.3
2,"Cn1nnc2c(=O)[nH]c(N3CCN(c4c(F)cc(OCCO)cc4F)CC3)nc21 [compound 7, 5-(4-(2,6-Difluoro-4-(2-hydroxyethoxy)phenyl)piperazin-1-yl)-3-methyl-3H-[1,2,3]triazolo[4,5-d]pyrimidin-7(6H)-one]",44
3,"CN(C)CCOc1cc(F)c(N2CCN(c3cc4c(nnn4C)c(=O)[nH]3)CC2)c(F)c1 [compound 56, 6-(4-(4-(2-(Dimethylamino)ethoxy)-2,6-difluorophenyl)piperazin-1-yl)-1-methyl-1H-[1,2,3]triazolo[4,5-c]pyridin-4(5H)-one]",27.5
4,"CN1CCN(CCOc2cc(F)c(N3CCN(c4nc5c(nnn5C)c(=O)[nH]4)CC3)c(F)c2)C(=O)C1 [compound 38, 5-(4-(2,6-Difluoro-4-(2-(4-methyl-2-oxopiperazin-1-yl)ethoxy)phenyl)piperazin-1-yl)-3-methyl-3H-[1,2,3]triazolo[4,5-d]pyrimidin-7(6H)-one]",43
5,"CN1CCN(CCOc2cc(F)c(N3CCN(c4nc5c(nnn5C)c(=O)[nH]4)CC3)c(F)c2)CC1 [compound 32, 5-(4-(2,6-Difluoro-4-(2-(4-methylpiperazin-1-yl)ethoxy)phenyl)piperazin-1-yl)-3-methyl-3H-[1,2,3]triazolo[4,5-d]pyrimidin-7(6H)-one]",120
6,"CN1CCN(CCOc2cc(F)c(N3CCN(c4cc5c(nnn5C)c(=O)[nH]4)CC3)c(F)c2)CC1 [compound 68, 6-(4-(2,6-Difluoro-4-(2-(4-methylpiperazin-1-yl)ethoxy)phenyl)piperazin-1-yl)-1-methyl-1H-[1,2,3]triazolo[4,5-c]pyridin-4(5H)-one]",14.2
7,"Cn1nnc2c(=O)[nH]c(N3CCN(c4c(F)cc(OCCN)cc4F)CC3)nc21 [compound 37, 5-(4-(4-(2-Aminoethoxy)-2,6-difluorophenyl)piperazin-1-yl)-3-methyl-3H-[1,2,3]triazolo[4,5-d]pyrimidin-7(6H)-one]",28.1
8,"Cn1nnc2c(=O)[nH]c(N3CCN(c4c(F)cc(OCCO)cc4F)CC3)cc21 [compound 57, 6-(4-(2,6-Difluoro-4-(2-hydroxyethoxy)phenyl)piperazin-1-yl)-1-methyl-1H[1,2,3]triazolo[4,5-c]pyridin-4(5H)-one]",7.98
9,"Cn1nnc2c(=O)[nH]c(N3CCN(c4c(F)cc(OCCN5CCOCC5)cc4F)CC3)cc21 [compound 54, 6-(4-(2,6-Difluoro-4-(2-morpholinoethoxy)phenyl)piperazin-1-yl)-1-methyl-1H-[1,2,3]triazolo[4,5-c]pyridin-4(5H)-one]",11
10,"CC(=O)OCCOc1cc(F)c(N2CCN(c3nc4c(nnn4C)c(=O)[nH]3)CC2)c(F)c1 [compound 8, 2-(3,5-Difluoro-4-(4-(3-methyl-7-oxo-6,7-dihydro-3H-[1,2,3]triazolo[4,5-d]pyrimidin-5-yl)piperazin-1-yl)phenoxy)ethyl acetate]",46.9
11,"Cn1nnc2c(=O)[nH]c(N3CCN(c4c(F)cc(OCC(=O)N5CCCC5)cc4F)CC3)cc21 [compound 70, 6-(4-(2,6-Difluoro-4-(2-oxo-2-(pyrrolidin-1-yl)ethoxy)phenyl)piperazin-1-yl)-1-methyl-1H-[1,2,3]triazolo[4,5-c]pyridin-4(5H)-one]",15.6
